# Read-outs that look alike come from different tables or passages of the source.
# Experiments:
# [1] = molecular target: PKC purified from rat brain; test: Protein kinase C (isozyme mix) assay; type: binding; settings: 37° C., 90 min, read-out: Kd of [H^3]-PDBu
# Experimental: In one approach, anticancer activity of compounds of the invention can be assessed using the protein kinase C assay detailed in Example 5. In this assay, Ki values are determined for analogues based on competition with radiolabeled phorbol 12,13-dibutyrate for binding to a mixture of PKC isoenzymes. PKC enzymes are implicated in a variety of cellular responses which may be involved in the activity of the bryostatins.
# The following procedure was used, based on a modification of a previous procedure described by Tanaka et al. (1986). Filters (Whatman GF-B, 21 mm diam.) are soaked for 1 h in a solution containing deionized water (97 mL), and 10% polyethyleneamine (3 mL). A filtering buffer solution containing TRIS (1M, pH 7.4, 10 mL) and water (490 mL) is prepared and cooled on ice. […] Non-specific binding is measured in 1-3 tubes by the substitution of phorbol myristate acetate (PMA) (1 mM, 5 μL) and EtOH (15 μL) for the analogue/EtOH combination. […] The filters are immediately counted in a scintillation counter (Beckman LS 6000SC). […] The data is then plotted using a least squares fit algorithm with the Macintosh version of Kaleidagraph© (Abelbeck Software) and an IC50 (defined as the concentration of analogue required to displace half of the specific PDBU binding to PKC) is calculated. […]
# [2] = molecular target: PKC purified from the rat brain; test: PKC binding assay; settings: for Ki: competitive inhibition of [3H]-PDBu binding, read-out: PKC Binding constant
# Experimental: Filters (Whatman GF-B, 21 mm dia.) are soaked for 1 hour in a solution containing deionized water (97 mL), and 10% polyethyleneamine (3 mL). An assay buffer solution is prepared by the combining of TRIS (1M, pH 7.4, 1 mL), KCl (1M, 2 μL), CaCl2 (0.1M, 30 μL), bovine serum albumin (40 mg), and diluting to 20 mL with deionized water and stored on ice. Phosphatidyl serine vesicles are prepared by the addition of phosphatidyl serine (10 mg/mL in chloroform, 0.4 mL) to a glass test tube followed by removal of the chloroform under a stream of nitrogen (5 min). To this viscous liquid is added a portion of the prepared assay buffer (4 mL) and the resulting mixture is then transferred to a plastic tube. This tube is then sonicated (Branson Sonifier 250, power=6, 40% duty cycle) four times for 30 sec. with a 30 sec. rest in-between sonications. The resulting solution is stored over ice. PKC is prepared by the addition of cooled assay buffer (10 mL) to PKC (25 mL) purified from the rat brain by the method of Mochly-Rosen et al. (J. Biol. Chem. 1987, 262, 2291) and then stored on ice. Stock solutions of compounds are diluted with absolute ethanol in glass in serial fashion.
# Each plastic assay incubation tube is made to contain prepared phosphatidyl serine vesicles (60 μL), prepared PKC solution (200 μL) and analog ([…] plus EtOH (20-0 μL) for a total volume of 20 μL). Lastly, tritiated phorbol dibutryate ([3H]-PDBu) (30 nM, 20 μL) is added to each tube. The assay is carried out using 7-10 analog concentrations, each in triplicate. Non-specific binding is measured in 1-3 tubes by the substitution of phorbol myristate acetate (PMA) (1 mM, 5 μL) and EtOH (15 μL) for the analog/EtOH combination. The tubes are incubated at 37° C. for 90 min. and then put on ice for 5 min. Each tube is then filtered separately through a pre-soaked filter disc. The filter is subsequently rinsed with cold 20 mM TRIS buffer (5 mL) dropwise. The filters are then put in separate scintillation vials and Universol® scintillation fluid is added (3 mL). The filters are immediately counted in a scintillation counter (Beckman LS 6000SC). Counts per minute are averaged among three trials at each concentration. The data is then plotted using a least square fit algorithm with the Macintosh version of Kaleidagraph® (Abelbeck Software) and an IC50 (defined as the concentration of analog required to displace half of the specific PDBu binding to PKC) is calculated. The IC50 then allows determination of the Ki for the analog from the equation: Ki=IC50/(1+[PDBu])/Kd of PDBu).
# P388 cell line = test: P388 murine lymphocytic leukemia cell assay; type: cell-based; settings: Mus musculus, P388, 120 h, read-out: P388 Assay ED50
# Experimental: Cells from a P388 cell line (CellGate, Inc., Sunnyvale, Calif.) are grown in RPMI 1640 cell medium containing fetal calf serum (10%), L-glutamine, penicillin, streptomycin and are split twice weekly. All compounds are first diluted with DMSO. Later serial dilutions are done with a phosphate buffer solution (HYQ DPBS modified phosphate buffered saline). All dilutions are done in glass vials and the final DMSO concentration is always below 0.5% by volume. Final two-fold dilutions are done in a 96 well plate using cell media so that each well contains 50 μL. All compounds are assayed in quadruplicate over 12 concentrations. Cell concentration is measured using a hemacytometer and the final cell concentration is adjusted to 1×10^4 cells/mL with cell medium. The resulting solution of cells (50 μL) is then added to each well and the plates are incubated for 5 days in a 37° C., 5% CO2, humidified incubator (Sanyo CO2 incubator). MTT solution (3-[4,5-dimethylthiazol-2-yl]-2,5-diphenyltetrazolium bromide, 10 μL) is then added to each well and the plates are re-incubated under identical conditions for 2 h. To each well is then added acidified isopropanol (150 μL of i-PrOH solution containing 0.05 N HCl) and mixed thoroughly. The plates are then scanned at 595 nm and the absorbances are read (Wallac Victor 1420 Multilabel Counter). The resulting data is then analyzed to determine an ED50 value using the Prism software package (GraphPad).
# PKCδ-C1B = molecular target: T1, PKCδ-C1B (Mus musculus, UniProt P28867); test: PKCδ-C1B assay; type: binding
# T1 construct: made in house
# Experimental: Phosphatidyl serine vesicles are prepared by the addition of phosphatidyl serine (10 mg/mL in chloroform, 0.4 mL) to a glass test tube followed by removal of the chloroform under a stream of nitrogen (5 min). […] The resulting solution is stored over ice. […] Stock solutions of compounds are diluted with absolute ethanol in glass in serial fashion. […] The tubes are incubated at 37° C. for 90 min. and then put on ice for 5 min. Each tube is then filtered separately through a pre-soaked filter disc. […] The filter is subsequently rinsed with cold 20 mM TRIS buffer (5 mL) dropwise. […] The filters are immediately counted in a scintillation counter (Beckman LS 6000SC). Counts per minute are averaged among three trials at each concentration.
# PKCδ-GFP fusion protein = molecular target: T2, PKCδ-GFP fusion protein (Homo sapiens, UniProt Q05655); test: PKC translocation assay, PKCδ; type: cell-based, Rat; settings: RBL cells, 200 nM, confocal microscopy
# T2 construct: The DNA encoding C-terminal GFP-tagged full-length PKCδ was electroporated into the cells; expressed in transfected cells; host or cells: Rat basophilic leukemia 2H3 (RBL) cells
# Experimental: (§1) Functional activity of analogs were addressed in a PKC translocation assay. […] This translocation can be observed and measured in real time with confocal microscopy using the fusion protein PKC-GFP (green fluorescent protein) as a reporter. Translocation assays were performed on the novel PKC isozymes δ and ε and on the conventional isozyme PKCβ1.
# (§2) Rat basophilic leukemia 2H3 (RBL) cells were cultured in Dulbecco's Modified Eagle Medium (DMEM) (Invitrogen Life Technologies, Gibco) containing 20% fetal calf serum with 50 units/ml penicillin, […] and 4 mM glutamine (Gibco). Cells were maintained at 37° C. in an atmosphere of 10% CO2. Two hours prior to transfection, cells were plated onto sterile glass coverslips. […]
# (§3) Fluorescence images were obtained using the 488 nm excitation line of a laser scanning confocal microscope (Pascal, Zeiss) and emission was collected through a 505-550 nm band pass filter. […]
# (§4) Images were exported as 12 bit files and analyzed using Metamorph data analysis software (Universal Imaging). To monitor the translocation of PKCδ-GFP, a small region of interest was selected in the cytosol of each cell and fluorescence intensity values graphed against time following background subtraction and normalization. […]
# [3] = molecular target: T3, PKCε (PKC-GFP fusion protein) (Homo sapiens, UniProt Q02156); test: PKC translocation assay, PKCε; type: cell-based, Rat; settings: RBL cells, 200 nM, confocal microscopy
# T3 construct: expressed in transfected cells; host or cells: Rat basophilic leukemia 2H3 (RBL) cells
# Experimental: as §1, §2, §3, §4
# [4] = molecular target: T4, PKCβI (PKC-GFP fusion protein) (Homo sapiens, UniProt P05771); test: PKC translocation assay, PKCβI; type: cell-based, Rat
# T4 construct: expressed in transfected cells; host or cells: Rat basophilic leukemia 2H3 (RBL) cells
# Experimental: as §1, §2, §3, §4
# T4 sequence (P05771 whole entry, the tested form may be a part): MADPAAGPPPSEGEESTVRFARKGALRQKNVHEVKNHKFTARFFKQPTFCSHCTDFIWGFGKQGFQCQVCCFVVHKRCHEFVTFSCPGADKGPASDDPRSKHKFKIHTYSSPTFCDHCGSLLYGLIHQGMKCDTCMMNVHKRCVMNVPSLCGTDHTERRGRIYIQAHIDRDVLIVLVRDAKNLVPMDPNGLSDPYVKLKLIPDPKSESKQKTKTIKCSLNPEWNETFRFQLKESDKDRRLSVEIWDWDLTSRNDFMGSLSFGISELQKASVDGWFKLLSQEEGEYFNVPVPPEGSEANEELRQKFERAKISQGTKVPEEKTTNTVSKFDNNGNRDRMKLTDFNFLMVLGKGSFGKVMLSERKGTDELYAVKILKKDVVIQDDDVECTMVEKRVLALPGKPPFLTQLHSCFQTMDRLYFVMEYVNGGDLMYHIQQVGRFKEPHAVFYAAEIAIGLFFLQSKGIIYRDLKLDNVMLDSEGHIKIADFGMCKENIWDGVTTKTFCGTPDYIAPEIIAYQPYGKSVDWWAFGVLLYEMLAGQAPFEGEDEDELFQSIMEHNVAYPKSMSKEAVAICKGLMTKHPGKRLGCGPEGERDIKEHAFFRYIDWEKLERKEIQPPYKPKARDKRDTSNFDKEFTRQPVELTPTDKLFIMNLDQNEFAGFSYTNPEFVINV
# T1 sequence (P28867 231-281 limits assumed): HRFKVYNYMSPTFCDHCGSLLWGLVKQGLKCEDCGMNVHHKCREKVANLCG
# T3 sequence (Q02156 whole entry, the tested form may be a part): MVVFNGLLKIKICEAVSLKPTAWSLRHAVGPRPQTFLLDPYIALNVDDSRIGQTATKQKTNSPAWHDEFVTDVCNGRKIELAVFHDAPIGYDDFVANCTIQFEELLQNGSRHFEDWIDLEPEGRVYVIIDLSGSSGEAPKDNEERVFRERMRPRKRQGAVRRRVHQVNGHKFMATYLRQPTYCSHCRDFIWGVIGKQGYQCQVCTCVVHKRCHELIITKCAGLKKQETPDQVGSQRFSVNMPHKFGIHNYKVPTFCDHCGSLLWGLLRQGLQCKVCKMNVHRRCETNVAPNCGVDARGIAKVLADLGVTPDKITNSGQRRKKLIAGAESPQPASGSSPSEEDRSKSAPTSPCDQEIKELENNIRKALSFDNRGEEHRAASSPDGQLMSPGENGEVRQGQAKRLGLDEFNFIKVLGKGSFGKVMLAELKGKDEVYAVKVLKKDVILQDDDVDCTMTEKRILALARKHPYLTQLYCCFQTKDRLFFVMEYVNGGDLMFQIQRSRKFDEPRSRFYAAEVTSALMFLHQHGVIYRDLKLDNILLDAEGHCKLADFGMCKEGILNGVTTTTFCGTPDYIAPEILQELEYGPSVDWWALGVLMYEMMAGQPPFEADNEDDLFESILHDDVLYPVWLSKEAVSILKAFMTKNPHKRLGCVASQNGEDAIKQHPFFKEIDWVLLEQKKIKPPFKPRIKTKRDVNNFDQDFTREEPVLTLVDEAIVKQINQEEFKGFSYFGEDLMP
# T2 sequence (Q05655 whole entry, the tested form may be a part): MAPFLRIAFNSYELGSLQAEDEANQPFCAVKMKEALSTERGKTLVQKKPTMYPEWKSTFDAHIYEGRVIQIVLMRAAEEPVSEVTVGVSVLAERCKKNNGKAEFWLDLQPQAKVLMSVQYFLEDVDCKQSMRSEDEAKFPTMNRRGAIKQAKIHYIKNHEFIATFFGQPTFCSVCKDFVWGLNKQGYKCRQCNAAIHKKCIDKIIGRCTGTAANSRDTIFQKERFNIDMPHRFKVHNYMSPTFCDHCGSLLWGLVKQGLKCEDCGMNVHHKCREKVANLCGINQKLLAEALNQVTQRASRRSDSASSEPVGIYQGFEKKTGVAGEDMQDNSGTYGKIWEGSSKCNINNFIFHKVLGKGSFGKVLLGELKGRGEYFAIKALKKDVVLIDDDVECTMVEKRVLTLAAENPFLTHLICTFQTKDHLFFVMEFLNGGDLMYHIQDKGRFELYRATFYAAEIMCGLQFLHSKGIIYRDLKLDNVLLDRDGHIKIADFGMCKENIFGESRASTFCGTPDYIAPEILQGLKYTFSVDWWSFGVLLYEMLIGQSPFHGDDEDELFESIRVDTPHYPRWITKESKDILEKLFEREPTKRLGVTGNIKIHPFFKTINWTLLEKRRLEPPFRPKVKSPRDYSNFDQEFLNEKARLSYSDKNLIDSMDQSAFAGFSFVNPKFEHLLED
compound,measurement,setting,value
"CCCC(=O)O[C@@H]1[C@@H](C)[C@@]2(O)[C@@H](C=C(CO)C[C@]3(O)C(=O)C(C)=C[C@@H]23)[C@@H]2C(C)(C)[C@]12OC(=O)CCC [[3H]—PDBu, tritiated phorbol 12,13-dibutyrate, reference compound]",Kd,[1],1.55 nM
same,Kd,[2]; read-out: PKC Binding constant (Kd of [3H]-PDBu),1.17 nM
COC(=O)/C=C1\C[C@H]2C[C@H]([C@@H](C)O)OC(=O)C[C@H](O)C[C@@H]3CCC[C@H](C[C@@H]4CCO[C@H](/C=C/C(C)(C)[C@](O)(O2)[C@H]1OC(C)=O)O4)O3 [Formula 702.2],EC50,"P388 cell line; 5 days incubation, MTT",181 nM
C=CCC1C[C@H]2CCOCC[C@@H](O)CC(=O)O[C@@H](CO)C[C@@H]3C/C(=C\C(=O)OC)[C@H](OC(=O)CCCCCCC)[C@@](O)(O3)C(C)(C)/C=C/[C@@H](O1)O2 (stereo partly shown) [Formula 20A],Ki,[2],2.6 nM
"CCCC(=O)O[C@@H]1[C@@H](C)[C@@]2(O)[C@@H](C=C(CO)C[C@]3(O)C(=O)C(C)=C[C@@H]23)[C@@H]2C(C)(C)[C@]12OC(=O)CCC [Phorbol dibutyrate, phorbol 12,13-dibutyrate, reference compound]",Kd,PKCδ-C1B; Kd value,1.7 nM
C=CCC1C[C@H]2C[C@H]3CCC[C@@H](C[C@@H](O)CC(=O)O[C@@H](CO)C[C@@H]4C/C(=C\C(=O)OC)[C@H](OC(=O)CCCCCCC)[C@@](O)(O4)C(C)(C)/C=C/[C@@H](O1)O2)O3 (stereo partly shown) [Formula 22A],Ki,[2],0.67 nM
CCCCCCC(=O)O[C@H]1/C(=C/C(=O)OC)C[C@H]2C[C@H]([C@@H](C)O)OC(=O)C[C@H](O)C[C@@H]3CCC[C@H](C[C@@H]4CCO[C@H](/C=C/C(C)(C)[C@]1(O)O2)O4)O3 [Formula 702.3],Ki,PKCδ-C1B,35 nM
same,EC50,P388 cell line,38 nM
CCCCCCCC(=O)OC1C(=CC(=O)OC)CC2CC(CO)OC(=O)CC(O)CC3CCCC(CC4COC(C=CC(C)(C)C1(O)O2)O4)O3 (stereo not shown) [Formula 18B.1],Ki,[2],5.4 nM
same,translocation of PKCδ from the cytosol to cellular membranes,PKCδ-GFP fusion protein,rapid and complete
same,translocation of PKCε from the cytosol to cellular membranes,[3],rapid and complete
same,ability to translocate PKCβI relative to bryostatin 1,[4],significantly reduced ability to translocate
same,translocation of PKCβI from the cytosol to cellular membranes,"[4]; RBL cells, 200 nM, confocal microscopy",reduced

# Reference: patent publication US8735609B2, “Bryostatin analogues, synthetic methods and uses” (The Board of Trustees of the Leland Stanford Junior …, priority 2007, dated 2014)
